Key:
Type in all cases: in vivo
[1] = tested on: Amaranthus retoflexus (AMARE); experiment: Glasshouse herbicide test, post-emergence; settings: 1000 g/h, evaluated after 13 days, five point scale, second table
Protocol: (§1) Seeds of a variety of test species are sown in standard soil in pots Alopecurus myosuroides (ALOMY), Amaranthus retoflexus (AMARE), Setaria faberi (SETFA), Echinochloa crus-galli (ECHCG), Lolium perenne (LOLPE), Solanum nigrum (SOLNI), Stellaria media (STEME) and Digitaria sanguinalis (DIGSA). After cultivation for one day (pre-emergence) or after 8 days cultivation (post-emergence) under controlled conditions in a glasshouse (at 24/16° C., day/night; 14 hours light; 65% humidity), the plants are sprayed with an aqueous spray solution derived from the formulation of the technical active ingredient in acetone/water (50:50) solution containing 0.5% Tween 20 (polyoxyethelyene sorbitan monolaurate, CAS RN 9005-64-5). Compounds are applied at 1000 g/h. The test plants are then grown in a glasshouse under controlled conditions in a glasshouse (at 24/16° C., day/night; 14 hours light; 65% humidity) and watered twice daily. After 13 days for pre and post-emergence, the test is evaluated for the percentage damage caused to the plant. The biological activities are shown in the following table on a five point scale (5=80-100%; 4=60-79%; 3=40-59%; 2=20-39%; 1=0-19%).

IPOHE [2] = experiment: Glasshouse herbicide test, post-emergence; settings: 1000 g/h, evaluated after 13 days, five point scale
Protocol: [The procedure below names another species; the source lists this species under the same test.] as §1

[3] = tested on: Alopecurus myosuroides (ALOMY); experiment: Glasshouse herbicide test, post-emergence; settings: 1000 g/h, evaluated after 13 days, five point scale
Protocol: as §1

[4] = tested on: Echinochloa crus-galli (ECHCG); experiment: Glasshouse herbicide test, post-emergence; settings: 1000 g/h, evaluated after 13 days, five point scale
Protocol: as §1

Solanum nigrum (SOLNI) [5] = experiment: Glasshouse herbicide test, post-emergence; settings: 1000 g/h, evaluated after 13 days, five point scale
Protocol: as §1

Setaria faberi (SETFA) [6] = experiment: Glasshouse herbicide test, post-emergence; settings: 1000 g/h, evaluated after 13 days, five point scale
Protocol: as §1

[7] = tested on: Amaranthus retoflexus (AMARE); experiment: Glasshouse herbicide test, pre-emergence; settings: 1000 g/h, evaluated after 13 days, five point scale, second table
Protocol: as §1

IPOHE [8] = experiment: Glasshouse herbicide test, pre-emergence; settings: 1000 g/h, evaluated after 13 days, five point scale
Protocol: [The procedure below names another species; the source lists this species under the same test.] as §1

[9] = tested on: Alopecurus myosuroides (ALOMY); experiment: Glasshouse herbicide test, pre-emergence; settings: 1000 g/h, evaluated after 13 days, five point scale
Protocol: as §1

[10] = tested on: Echinochloa crus-galli (ECHCG); experiment: Glasshouse herbicide test, pre-emergence; settings: 1000 g/h, evaluated after 13 days, five point scale
Protocol: as §1

Solanum nigrum (SOLNI) [11] = experiment: Glasshouse herbicide test, pre-emergence; settings: 1000 g/h, evaluated after 13 days, five point scale
Protocol: as §1

Setaria faberi (SETFA) [12] = experiment: Glasshouse herbicide test, pre-emergence; settings: 1000 g/h, evaluated after 13 days, five point scale
Protocol: as §1

| Structure (SMILES) | percentage damage caused to the plant, AMARE, POST Application [1] | percentage damage caused to the plant, IPOHE, POST Application (IPOHE [2]) | percentage damage caused to the plant, ALOMY, POST Application [3] | percentage damage caused to the plant, ECHCG, POST Application [4] | percentage damage caused to the plant, SOLNI, POST Application (Solanum nigrum (SOLNI) [5]) | percentage damage caused to the plant, SETFA, POST Application (Setaria faberi (SETFA) [6]) | percentage damage caused to the plant, AMARE, PRE Application [7] | percentage damage caused to the plant, IPOHE, PRE Application (IPOHE [8]) | percentage damage caused to the plant, ALOMY, PRE Application [9] | percentage damage caused to the plant, ECHCG, PRE Application [10] | percentage damage caused to the plant, SOLNI, PRE Application (Solanum nigrum (SOLNI) [11]) | percentage damage caused to the plant, SETFA, PRE Application (Setaria faberi (SETFA) [12]) |
| --- | --- | --- | --- | --- | --- | --- | --- | --- | --- | --- | --- | --- |
| Cc1ccc([N+](=O)[O-])c(C(=O)Nc2nncn2C)c1 [Compound 2.005] | 4 (4=60-79%) | 4 (4=60-79%) | 1 (1=0-19%) | 1 (1=0-19%) | 4 (4=60-79%) | 1 (1=0-19%) | 2 (2=20-39%) | 3 (3=40-59%) | 1 (1=0-19%) | 1 (1=0-19%) | 2 (2=20-39%) | 1 (1=0-19%) |
| Cc1ccc(C(F)(F)F)c(C(=O)Nc2nncn2C)c1 [Compound 2.006] | 2 (2=20-39%) | 2 (2=20-39%) | 1 (1=0-19%) | 1 (1=0-19%) | 4 (4=60-79%) | 1 (1=0-19%) | 2 (2=20-39%) | 3 (3=40-59%) | 1 (1=0-19%) | 1 (1=0-19%) | 3 (3=40-59%) | 1 (1=0-19%) |
| CCn1cnnc1NC(=O)c1ccc(S(C)(=O)=O)c(COCC(F)(F)F)c1Cl [Compound 1.014] | 5 (5=80-100%) | 5 (5=80-100%) | 5 (5=80-100%) | 5 (5=80-100%) | 5 (5=80-100%) | 5 (5=80-100%) | 5 (5=80-100%) | 5 (5=80-100%) | 5 (5=80-100%) | 5 (5=80-100%) | 5 (5=80-100%) | 5 (5=80-100%) |
| Cn1cnnc1NC(=O)c1ccc(C(F)(F)F)cc1S(C)(=O)=O [Compound 1.008] | 5 (5=80-100%) | 5 (5=80-100%) | 3 (3=40-59%) | 4 (4=60-79%) | 5 (5=80-100%) | 3 (3=40-59%) | 5 (5=80-100%) | 4 (4=60-79%) | 2 (2=20-39%) | 5 (5=80-100%) | 5 (5=80-100%) | 3 (3=40-59%) |
| Cc1nnc(NC(=O)c2ccc(C(F)(F)F)cc2S(C)(=O)=O)n1C [Compound 1.009] | 2 (2=20-39%) | 3 (3=40-59%) | 2 (2=20-39%) | 1 (1=0-19%) | 4 (4=60-79%) | 1 (1=0-19%) | 4 (4=60-79%) | 1 (1=0-19%) | 1 (1=0-19%) | 1 (1=0-19%) | 2 (2=20-39%) | 1 (1=0-19%) |
| CCn1c(C)nnc1NC(=O)c1ccc(S(C)(=O)=O)c(COCC(F)(F)F)c1Cl [Compound 1.015] | 4 (4=60-79%) | 4 (4=60-79%) | 2 (2=20-39%) | 2 (2=20-39%) | 4 (4=60-79%) | 1 (1=0-19%) | 4 (4=60-79%) | 2 (2=20-39%) | 1 (1=0-19%) | 1 (1=0-19%) | 4 (4=60-79%) | 1 (1=0-19%) |
| CCc1nnc(NC(=O)c2ccc(S(C)(=O)=O)c(COCC(F)(F)F)c2Cl)n1C [Compound 1.013] | 1 (1=0-19%) | 1 (1=0-19%) | 2 (2=20-39%) | 1 (1=0-19%) | 2 (2=20-39%) | 1 (1=0-19%) | 1 (1=0-19%) | 1 (1=0-19%) | 1 (1=0-19%) | 1 (1=0-19%) | 1 (1=0-19%) | 1 (1=0-19%) |
| Cn1cnnc1NC(=O)c1cc(F)c(F)cc1[N+](=O)[O-] [Compound 2.003] | 1 (1=0-19%) | 1 (1=0-19%) | 1 (1=0-19%) | 1 (1=0-19%) | 1 (1=0-19%) | 1 (1=0-19%) | 1 (1=0-19%) | 1 (1=0-19%) | 1 (1=0-19%) | 1 (1=0-19%) | 1 (1=0-19%) | 1 (1=0-19%) |
| CCn1cnnc1NC(=O)c1ccc(C(F)(F)F)cc1S(C)(=O)=O [Compound 1.011] | 5 (5=80-100%) | 5 (5=80-100%) | 2 (2=20-39%) | 4 (4=60-79%) | 5 (5=80-100%) | 2 (2=20-39%) | 5 (5=80-100%) | 4 (4=60-79%) | 1 (1=0-19%) | 4 (4=60-79%) | 5 (5=80-100%) | 2 (2=20-39%) |

Source: patent US20150065345A1, “1,2,4 - TRIAZOLE DERIVATIVES AS HERBICIDALS” (SYNGENTA LIMITED, priority 2012, published 2015)
